From the supplement of paper PMC10307832

What was measured:
Assay in all cases: relative viability (nuclei count vs DMSO), 5 days (fraction); higher = more cells survive
NCI-H838 = system: NCI-H838
Method in brief: (§1)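 Five library-drug doses in √10 steps were combined with a fixed anchor-drug dose, or a single drug was given alone, by pin tool to lung cancer cell lines in 1536-well plates the day after seeding. Nuclei were stained and counted after 5 days. Relative viability is the nuclei count in treated wells over that in vehicle wells, taken as the median of duplicate plates.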

NCI-H2087 = system: NCI-H2087
Method in brief: as §1

NCI-H1651 = system: NCI-H1651
Method in brief: as §1

EPLC-272H = system: EPLC-272H
Method in brief: as §1

EMC-BAC-2 = system: EMC-BAC-2
Method in brief: as §1

NCI-H520 = system: NCI-H520
Method in brief: as §1

LU99A = system: LU99A
Method in brief: as §1

COR-L23 = system: COR-L23
Method in brief: as §1

NCI-H2085 = system: NCI-H2085
Method in brief: as §1

HCC-827 = system: HCC-827
Method in brief: as §1

NCI-H1563 = system: NCI-H1563
Method in brief: as §1

NCI-H2405 = system: NCI-H2405
Method in brief: as §1

LCLC-103H = system: LCLC-103H
Method in brief: as §1

NCI-H650 = system: NCI-H650
Method in brief: as §1

HCC-44 = system: HCC-44
Method in brief: as §1

NCI-H1793 = system: NCI-H1793
Method in brief: as §1

NCI-H1944 = system: NCI-H1944
Method in brief: as §1

SK-MES-1 = system: SK-MES-1
Method in brief: as §1

H3255 = system: H3255
Method in brief: as §1

ChaGo-K-1 = system: ChaGo-K-1
Method in brief: as §1

NCI-H2023 = system: NCI-H2023
Method in brief: as §1

NCI-H1395 = system: NCI-H1395
Method in brief: as §1

## CCN(CC)CCCCNc1ncc2cc(-c3cc(OC)cc(OC)c3)c(NC(=O)NC(C)(C)C)nc2n1 + CCNC(=O)c1noc(-c2cc(C(C)C)c(O)cc2O)c1-c1ccc(CN2CCOCC2)cc1 [Luminespib] (partner 0.01 µM)
NCI-H838; first compound 0.01 µM
  relative viability: 0.344
NCI-H838; first compound 0.03162 µM
  relative viability: 0.244
NCI-H838; first compound 0.1 µM
  relative viability: 0.304
NCI-H838; first compound 0.3162 µM
  relative viability: 0.304
NCI-H838; first compound 1 µM
  relative viability: 0.3
NCI-H2087; first compound 0.01 µM
  relative viability: 0.172
NCI-H2087; first compound 0.03162 µM
  relative viability: 0.154
NCI-H2087; first compound 0.1 µM
  relative viability: 0.161
NCI-H2087; first compound 0.3162 µM
  relative viability: 0.177
NCI-H2087; first compound 1 µM
  relative viability: 0.158
NCI-H1651; first compound 0.01 µM
  relative viability: 0.886
NCI-H1651; first compound 0.03162 µM
  relative viability: 0.875
NCI-H1651; first compound 0.1 µM
  relative viability: 0.779
NCI-H1651; first compound 0.3162 µM
  relative viability: 1.33
NCI-H1651; first compound 1 µM
  relative viability: 0.781
EPLC-272H; first compound 0.01 µM
  relative viability: 0.26
EPLC-272H; first compound 0.03162 µM
  relative viability: 0.266
EPLC-272H; first compound 0.1 µM
  relative viability: 0.204
EPLC-272H; first compound 0.3162 µM
  relative viability: 0.219
EPLC-272H; first compound 1 µM
  relative viability: 0.329
EMC-BAC-2; first compound 0.01 µM
  relative viability: 1.27
EMC-BAC-2; first compound 0.03162 µM
  relative viability: 1.16
EMC-BAC-2; first compound 0.1 µM
  relative viability: 1.08
EMC-BAC-2; first compound 0.3162 µM
  relative viability: 1.35
EMC-BAC-2; first compound 1 µM
  relative viability: 1.05
NCI-H520; first compound 0.01 µM
  relative viability: 0.203
NCI-H520; first compound 0.03162 µM
  relative viability: 0.228
NCI-H520; first compound 0.1 µM
  relative viability: 0.229
NCI-H520; first compound 0.3162 µM
  relative viability: 0.289
NCI-H520; first compound 1 µM
  relative viability: 0.207
LU99A; first compound 0.01 µM
  relative viability: 0.301
LU99A; first compound 0.03162 µM
  relative viability: 0.251
LU99A; first compound 0.1 µM
  relative viability: 0.197
LU99A; first compound 0.3162 µM
  relative viability: 0.25
LU99A; first compound 1 µM
  relative viability: 0.27
COR-L23; first compound 0.01 µM
  relative viability: 0.799
COR-L23; first compound 0.03162 µM
  relative viability: 0.707
COR-L23; first compound 0.1 µM
  relative viability: 0.955
COR-L23; first compound 0.3162 µM
  relative viability: 1.03
COR-L23; first compound 1 µM
  relative viability: 0.639
NCI-H2085; first compound 0.01 µM
  relative viability: 0.419
NCI-H2085; first compound 0.03162 µM
  relative viability: 0.424
NCI-H2085; first compound 0.1 µM
  relative viability: 0.402
NCI-H2085; first compound 0.3162 µM
  relative viability: 0.405
NCI-H2085; first compound 1 µM
  relative viability: 0.458
HCC-827; first compound 0.01 µM
  relative viability: 0.675
HCC-827; first compound 0.03162 µM
  relative viability: 0.891
HCC-827; first compound 0.1 µM
  relative viability: 0.77
HCC-827; first compound 0.3162 µM
  relative viability: 0.774
HCC-827; first compound 1 µM
  relative viability: 0.587
NCI-H1563; first compound 0.01 µM
  relative viability: 0.537
NCI-H1563; first compound 0.03162 µM
  relative viability: 0.532
NCI-H1563; first compound 0.1 µM
  relative viability: 0.549
NCI-H1563; first compound 0.3162 µM
  relative viability: 0.597
NCI-H1563; first compound 1 µM
  relative viability: 0.545
NCI-H2405; first compound 0.01 µM
  relative viability: 0.649
NCI-H2405; first compound 0.03162 µM
  relative viability: 0.644
NCI-H2405; first compound 0.1 µM
  relative viability: 0.76
NCI-H2405; first compound 0.3162 µM
  relative viability: 0.654
NCI-H2405; first compound 1 µM
  relative viability: 0.684
LCLC-103H; first compound 0.01 µM
  relative viability: 1.07
LCLC-103H; first compound 0.03162 µM
  relative viability: 1.06
LCLC-103H; first compound 0.1 µM
  relative viability: 0.924
LCLC-103H; first compound 0.3162 µM
  relative viability: 1.01
LCLC-103H; first compound 1 µM
  relative viability: 0.739
NCI-H650; first compound 0.01 µM
  relative viability: 0.74
NCI-H650; first compound 0.03162 µM
  relative viability: 0.729
NCI-H650; first compound 0.1 µM
  relative viability: 0.736
NCI-H650; first compound 0.3162 µM
  relative viability: 0.864
NCI-H650; first compound 1 µM
  relative viability: 0.848
HCC-44; first compound 0.01 µM
  relative viability: 1.07
HCC-44; first compound 0.03162 µM
  relative viability: 1.06
HCC-44; first compound 0.1 µM
  relative viability: 0.801
HCC-44; first compound 0.3162 µM
  relative viability: 1.06
HCC-44; first compound 1 µM
  relative viability: 0.866
NCI-H1793; first compound 0.01 µM
  relative viability: 0.345
NCI-H1793; first compound 0.03162 µM
  relative viability: 0.198
NCI-H1793; first compound 0.1 µM
  relative viability: 0.166
NCI-H1793; first compound 0.3162 µM
  relative viability: 0.157
NCI-H1793; first compound 1 µM
  relative viability: 0.156
NCI-H1944; first compound 0.01 µM
  relative viability: 0.705
NCI-H1944; first compound 0.03162 µM
  relative viability: 0.747
NCI-H1944; first compound 0.1 µM
  relative viability: 0.762
NCI-H1944; first compound 0.3162 µM
  relative viability: 0.822
NCI-H1944; first compound 1 µM
  relative viability: 0.603
SK-MES-1; first compound 0.01 µM
  relative viability: 0.97
SK-MES-1; first compound 0.03162 µM
  relative viability: 0.762
SK-MES-1; first compound 0.1 µM
  relative viability: 0.832
SK-MES-1; first compound 0.3162 µM
  relative viability: 0.798
SK-MES-1; first compound 1 µM
  relative viability: 0.576
H3255; first compound 0.01 µM
  relative viability: 0.73
H3255; first compound 0.03162 µM
  relative viability: 0.824
H3255; first compound 0.1 µM
  relative viability: 0.915
H3255; first compound 0.3162 µM
  relative viability: 0.992
H3255; first compound 1 µM
  relative viability: 0.833
ChaGo-K-1; first compound 0.01 µM
  relative viability: 0.618
ChaGo-K-1; first compound 0.03162 µM
  relative viability: 0.638
ChaGo-K-1; first compound 0.1 µM
  relative viability: 0.727
ChaGo-K-1; first compound 0.3162 µM
  relative viability: 0.679
ChaGo-K-1; first compound 1 µM
  relative viability: 0.811
NCI-H2023; first compound 0.01 µM
  relative viability: 0.663
NCI-H2023; first compound 0.03162 µM
  relative viability: 1.05
NCI-H2023; first compound 0.1 µM
  relative viability: 0.745
NCI-H2023; first compound 0.3162 µM
  relative viability: 0.833
NCI-H2023; first compound 1 µM
  relative viability: 0.545
NCI-H1395; first compound 0.01 µM
  relative viability: 0.659
NCI-H1395; first compound 0.03162 µM
  relative viability: 0.878
NCI-H1395; first compound 0.1 µM
  relative viability: 0.662
NCI-H1395; first compound 0.3162 µM
  relative viability: 0.65
NCI-H1395; first compound 1 µM
  relative viability: 0.48
